# Measured values taken from patent publication US20240024514A1, “RECOMBINANT ADENO-ASSOCIATED VIRUSES WITH ENHANCED LIVER TROPISM AND USES THEREOF” (priority 2020, published 2024).
# Tests used:
# HBeAg = HBeAg in HBV transgenic mice; assay type: in vivo; conditions: blood, ETV 3.2 mg/kg, rAAV 3 × 10^10 vg/animal
# Method: (§1) scAAV2/X-H1-shRNA-intron2 and scAAV2/8-H1-shRNA-intron2 were administered to HBV transgenic mice (Beijing Vitalstar Biotechnology Co., Ltd, B6-Tg HBV/Vst; C57BL/6-HBV) via intravenous injection, respectively. Epivir® (Lamivudine) and Baraclude® (Entecavir) were used as controls. Blood was collected on days 0, 7, 14, 21, 28, 35, 56, 84, 112, 140, 168, 196, 224, and 252, centrifuged, and assayed for the level of HBsAg, HBeAg, and HBV DNA.
# HBV DNA [1] = assay: HBV DNA in HBV transgenic mice; assay type: in vivo; conditions: blood, LAM 150 mg/kg, ETV 3.2 mg/kg, rAAV 3 × 10^10 vg/animal
# Method: as §1
# HBsAg = HBsAg in HBV transgenic mice; assay type: in vivo; conditions: blood, LAM 150 mg/kg, ETV 3.2 mg/kg, rAAV 3 × 10^10 vg/animal
# Method: as §1
# HBV HBsAg = assay: suppression of HBV HBsAg in HepG2.2.15 cells; assay type: cell-based, Hepatitis B virus; conditions: 1 ug/mL
# Method: (§2) scAAV2/X-H1-shRNA-intron2 and scAAV2/8-H1-shRNA-intron2 were used to infect HepG2.2.15 cells with increased Multiplicity of Infection (MOI). The levels of HBV HBeAg, HBV HBsAg, and HBV DNA in samples were measured by HBV HBeAg diagnostic kit (Beijing Wantai Biopharmaceuticals Ltd. Co.), HBV HBsAg diagnostic kit (Beijing Wantai Biopharmaceuticals Ltd. Co.), and HBV nucleotide quantification kit (QIAGEN), respectively. 1 ug/mL of Lamivudine (LAM) was used as a positive control in the experiments. scAAV2/X-H1-NC-intron2 (X-NC) and scAAV2/8-H1-NC-intron2 (8-NC) were used as negative controls. […] The sample was collected every day for nine days and analyzed for the levels of HBeAg, HbsAg, and HBV DNA.
# HBV DNA [2] = assay: suppression of HBV DNA in HepG2.2.15 cells; assay type: cell-based, Hepatitis B virus; conditions: 1 ug/mL
# Method: as §2
# HBV HBeAg = assay: suppression of HBV HBeAg in HepG2.2.15 cells; assay type: cell-based, Hepatitis B virus; conditions: 1 ug/mL
# Method: as §2
compound,measurement,setting,value
"C=C1[C@H](CO)[C@@H](O)C[C@@H]1n1cnc2c(=O)[nH]c(N)nc21 [ETV, Entecavir]",HBeAg Levels,HBeAg; D0,130.7 PEIU/mL
same,HBeAg Levels,HBeAg; D7,138.6 PEIU/mL
same,HBeAg Levels,HBeAg; D14,92.1 PEIU/mL
same,HBeAg Levels,HBeAg; D21,66.5 PEIU/mL
same,HBeAg Levels,HBeAg; D28,78.3 PEIU/mL
same,HBeAg Levels,HBeAg; D35,48.2 PEIU/mL
same,HBeAg Levels,HBeAg; D56,131.4 PEIU/mL
same,HBeAg Levels,HBeAg; D84,105.1 PEIU/mL
same,HBeAg Levels,HBeAg; D112,133.8 PEIU/mL
same,HBeAg Levels,HBeAg; D140,178.5 PEIU/mL
same,HBeAg Levels,HBeAg; D168,125.9 PEIU/mL
same,HBeAg Levels,HBeAg; D196,150.5 PEIU/mL
same,HBeAg Levels,HBeAg; D224,123.5 PEIU/mL
same,HBeAg Levels,HBeAg; D252,155.1 PEIU/mL
same,HBV DNA Levels,HBV DNA [1]; D0,1
same,HBV DNA Levels,HBV DNA [1]; D7,5.7
same,HBV DNA Levels,HBV DNA [1]; D14,8.68
same,HBV DNA Levels,HBV DNA [1]; D21,0.66
same,HBV DNA Levels,HBV DNA [1]; D28,1.24
same,HBV DNA Levels,HBV DNA [1]; D35,1.08
same,HBV DNA Levels,HBV DNA [1]; D56,1.17
same,HBV DNA Levels,HBV DNA [1]; D84,1.1
same,HBV DNA Levels,HBV DNA [1]; D112,2.24
same,HBV DNA Levels,HBV DNA [1]; D140,1.91
same,HBV DNA Levels,HBV DNA [1]; D168,1.79
same,HBV DNA Levels,HBV DNA [1]; D196,2.17
same,HBV DNA Levels,HBV DNA [1]; D224,2.48
same,HBV DNA Levels,HBV DNA [1]; D252,1.42
same,HBsAg Levels,HBsAg; D0,1
same,HBsAg Levels,HBsAg; D7,1.52
same,HBsAg Levels,HBsAg; D14,1.51
same,HBsAg Levels,HBsAg; D21,1.08
same,HBsAg Levels,HBsAg; D28,1.55
same,HBsAg Levels,HBsAg; D35,1.8
same,HBsAg Levels,HBsAg; D56,1.21
same,HBsAg Levels,HBsAg; D84,1.18
same,HBsAg Levels,HBsAg; D112,0.43
same,HBsAg Levels,HBsAg; D140,1.04
same,HBsAg Levels,HBsAg; D168,1.23
same,HBsAg Levels,HBsAg; D196,1.48
same,HBsAg Levels,HBsAg; D224,1.16
same,HBsAg Levels,HBsAg; D252,0.72
Nc1ccn([C@@H]2CS[C@H](CO)O2)c(=O)n1 [Lamivudine],level of HBsAg,HBV HBsAg; D0,1
same,level of HBsAg,HBV HBsAg; D1,0.7085
same,level of HBsAg,HBV HBsAg; D2,1.069
same,level of HBsAg,HBV HBsAg; D3,0.8838
same,level of HBsAg,HBV HBsAg; D4,0.8549
same,level of HBsAg,HBV HBsAg; D5,0.9837
same,level of HBsAg,HBV HBsAg; D6,1.128
same,level of HBsAg,HBV HBsAg; D7,1.284
same,level of HBsAg,HBV HBsAg; D8,1.324
same,level of HBsAg,HBV HBsAg; D9,0.7175
same,level of HBV DNA,HBV DNA [2]; D0,1
same,level of HBV DNA,HBV DNA [2]; D1,0.6797
same,level of HBV DNA,HBV DNA [2]; D2,0.358
same,level of HBV DNA,HBV DNA [2]; D3,0.357
same,level of HBV DNA,HBV DNA [2]; D4,0.1907
same,level of HBV DNA,HBV DNA [2]; D5,0.05735
same,level of HBV DNA,HBV DNA [2]; D6,0.02341
same,level of HBV DNA,HBV DNA [2]; D7,0.04001
same,level of HBV DNA,HBV DNA [2]; D8,0.02104
same,level of HBV DNA,HBV DNA [2]; D9,0.006153
same,HBV DNA Levels,HBV DNA [1]; D0,1
same,HBV DNA Levels,HBV DNA [1]; D7,1.3
same,HBV DNA Levels,HBV DNA [1]; D14,0.69
same,HBV DNA Levels,HBV DNA [1]; D21,0.49
same,HBV DNA Levels,HBV DNA [1]; D28,0.87
same,HBV DNA Levels,HBV DNA [1]; D35,0.72
same,HBV DNA Levels,HBV DNA [1]; D56,0.97
same,HBV DNA Levels,HBV DNA [1]; D84,0.43
same,HBV DNA Levels,HBV DNA [1]; D112,1.64
same,HBV DNA Levels,HBV DNA [1]; D140,0.92
same,HBV DNA Levels,HBV DNA [1]; D168,0.63
same,HBV DNA Levels,HBV DNA [1]; D196,0.18
same,HBV DNA Levels,HBV DNA [1]; D224,0.12
same,HBV DNA Levels,HBV DNA [1]; D252,0.23
same,level of HBeAg,HBV HBeAg; D0,1
same,level of HBeAg,HBV HBeAg; D1,1.323
same,level of HBeAg,HBV HBeAg; D2,0.716
same,level of HBeAg,HBV HBeAg; D3,0.9612
same,level of HBeAg,HBV HBeAg; D4,1.035
same,level of HBeAg,HBV HBeAg; D5,1.916
same,level of HBeAg,HBV HBeAg; D6,0.9979
same,level of HBeAg,HBV HBeAg; D7,1.148
same,level of HBeAg,HBV HBeAg; D8,0.9362
same,level of HBeAg,HBV HBeAg; D9,0.5632
same,HBsAg Levels,HBsAg; D0,1
same,HBsAg Levels,HBsAg; D7,1
same,HBsAg Levels,HBsAg; D14,0.98
same,HBsAg Levels,HBsAg; D21,1.01
same,HBsAg Levels,HBsAg; D28,0.96
same,HBsAg Levels,HBsAg; D35,1.23
same,HBsAg Levels,HBsAg; D56,0.84
same,HBsAg Levels,HBsAg; D84,0.88
same,HBsAg Levels,HBsAg; D112,0.5
same,HBsAg Levels,HBsAg; D140,0.98
same,HBsAg Levels,HBsAg; D168,1.1
same,HBsAg Levels,HBsAg; D196,0.82
same,HBsAg Levels,HBsAg; D224,0.76
same,HBsAg Levels,HBsAg; D252,0.46
